This is an account of results in US12384800B2, “Antitumoral compounds” (priority 2017, dated 2025).

One may read the GI50 as the concentration at which growth is held to half of that of the control. High values mean less potent growth inhibition, low ones more potent growth inhibition.

Holding throughout (test): cells
Data set [1] concerns A549 cells (lung carcinoma, NSCLC). The following applies: A549, SRB; for GI50: 72 hours treatment; for TGI: total cell growth inhibition; for TGI / CC50: 72 hours; for CC50: read-out: LC50, 50% net cell killing. An excerpt:
(§1) The aim of this assay is to evaluate the in vitro cytostatic (ability to delay or arrest tumor cell growth) or cytotoxic (ability to kill tumor cells) activity of the samples being tested.
(§2) A colorimetric assay, using sulforhodamine B (SRB) reaction has been adapted to provide a quantitative measurement of cell growth and viability (following the technique described by Skehan et al. J. Natl. Cancer Inst. 1990, 82, 1107-1112). Another colorimetric assay based on 3-(4,5-Dimethylthiazol-2-yl)-2,5-diphenyltetrazolium bromide (MTT) reduction to a purple formazan has been also used to assess the antiproliferative activity (following the technique described by Mosmann et al. J. Immunol. Meth. 1983, 65, 55-63).
(§3) These forms of assays employ 96-well cell culture microplates following the standards of the American National Standards Institute and the Society for Laboratory Automation and Screening (ANSI SLAS 1-2004 (R2012) Oct. 12, 2011. All the cell lines used in this study were obtained from the American Type Culture Collection (ATCC) and derive from different types of human cancer.
(§4) A549, HT29, MDA-MB-231 and PSN1 cells were maintained in Dulbecco's Modified Eagle Medium (DMEM) while PC-3 and 22Rv1 cells were maintained in Roswell Park Memorial Institute Medium (RPMI). All cell lines were supplemented with 10% Fetal Bovine Serum (FBS), 2 mM L-glutamine, 100 U/mL penicillin, and 100 […] at 37° C., 5% CO2 and 98% humidity. For the experiments, cells were harvested from subconfluent cultures using trypsinization and resuspended in fresh medium before counting and plating.
(§5) A549, HT29, MDA-MB-231 and PSN1 cells were seeded in 96 well microtiter plates, at 5000 cells per well in aliquots of 150 μL, and allowed to attach to the plate surface for 18 hours (overnight) in drug free medium. After that, one control (untreated) plate of each cell line was fixed (as described below) and used for time zero reference value. Culture plates were then treated with test compounds (50 μL aliquots of 4× stock solutions in complete culture medium plus 4% DMSO) using ten ⅖ serial dilutions (concentrations ranging from 10 to 0.003 μg/mL) and triplicate cultures (1% final concentration in DMSO). After 72 hours treatment, the antitumor effect was measured by using the SRB methodology: Briefly, cells were washed twice with PBS, fixed for 15 min in 1% glutaraldehyde solution at room temperature, rinsed twice in PBS, and stained in 0.4% SRB solution for 30 min at room temperature. Cells were then rinsed several times with 1% acetic acid solution and air-dried at room temperature.
(§6) Effects on cell growth and survival were estimated by applying the NCI algorithm (Boyd M R and Paull K D. Drug Dev. Res. 1995, 34, 91-104). The values obtained in triplicate cultures were fitted by nonlinear regression to a four-parameters logistic curve by nonlinear regression analysis.

The subject of data set [2] is PSN1 cells (pancreas adenocarcinoma). Conditions: PSN1, SRB; for GI50: 72 hours treatment; for TGI: total cell growth inhibition; for TGI / CC50: 72 hours; for CC50: read-out: LC50, 50% net cell killing.
From the text: as §1, §2, §3, §4, §5, §6

Data set [3] relates to MDA-MB-231 cells (breast adenocarcinoma). Conditions: MDA-MB-231, SRB; for GI50: 72 hours treatment; for TGI: total cell growth inhibition; for TGI / CC50: 72 hours; for CC50: read-out: LC50, 50% net cell killing.
From the text: as §1, §2, §3, §4, §5, §6

Data set [4] deals with HT29 cells (colorectal adenocarcinoma). The following applies: HT29, SRB; for GI50: 72 hours treatment; for TGI: total cell growth inhibition; for TGI / CC50: 72 hours; for CC50: read-out: LC50, 50% net cell killing.
From the text: as §1, §2, §3, §4, §5, §6

For the molecule `C=CCOC(=O)NC[C@@H]1Cc2c([nH]c3ccc(OC)cc23)[C@@]2(CS[C@@H]3c4c(OC(C)=O)c(C)c5c(c4[C@H](COC2=O)N2[C@@H]3[C@H]3c4c(cc(C)c(OC)c4O)C[C@@H]([C@@H]2C#N)N3C)OCO5)N1` [Compound 25-S], the concentration for 50% growth inhibition (GI50) is 7.17 nM in data set [1], 6.84 nM in data set [2], 5.84 nM in data set [3] and 7.17 nM in data set [4]. Moreover, the TGI is 7.61E−09 Molar in data set [1], 9.26E−09 Molar in data set [2], 9.04E−09 Molar in data set [3] and 7.72E−09 Molar in data set [4]. In addition, the CC50 is over 110 nM in data set [1], 14.3 nM in data set [2], 15.4 nM in data set [3] and over 110 nM in data set [4].
Regarding `COc1ccc2[nH]c3c(c2c1)C[C@H](CN)N[C@]31CS[C@@H]2c3c(OC(C)=O)c(C)c4c(c3[C@H](COC1=O)N1[C@@H]2[C@H]2c3c(cc(C)c(OC)c3O)C[C@@H]([C@@H]1C#N)N2C)OCO4` [Compound 26-R], the GI50 worked out at 1.94 nM in data set [1], 0.972 nM in data set [2], 1.17 nM in data set [3] and 0.729 nM in data set [4]. Moreover, the TGI worked out at 3.40E−09 Molar in data set [1], 1.70E−09 Molar in data set [2], 1.22E−09 Molar in data set [3] and 1.58E−09 Molar in data set [4]. Also, the CC50 in data set [1] was over 122 nM; in data set [2] it was 3.52 nM; in data set [3] it was 1.46 nM; in data set [4] it was over 122 nM.
With `COc1ccc2[nH]c3c(c2c1)C[C@@H](CN)N[C@]31CS[C@@H]2c3c(OC(C)=O)c(C)c4c(c3[C@H](COC1=O)N1[C@@H]2[C@H]2c3c(cc(C)c(OC)c3O)C[C@@H]([C@@H]1C#N)N2C)OCO4` [Compound 26-S], the GI50 in data set [1] was 11.2 nM; in data set [2], 3.04 nM; in data set [3] it was 1.34 nM; in data set [4], 2.79 nM. The TGI in data set [1] stood at 2.19E−08 Molar; in data set [2], 3.28E−09 Molar; in data set [3], 1.94E−09 Molar; in data set [4], 3.16E−09 Molar. The CC50 in data set [1] is over 122 nM; in data set [2], 3.52 nM; in data set [3], 3.89 nM; in data set [4], over 122 nM.
On to `COc1ccc2[nH]c3c(c2c1)C[C@H](C(=O)O)N[C@]31CS[C@@H]2c3c(OC(C)=O)c(C)c4c(c3[C@H](COC1=O)N1[C@@H]2[C@H]2c3c(cc(C)c(OC)c3O)C[C@@H]([C@@H]1C#N)N2C)OCO4` [Compound 28-R, reference compound], for which the GI50 in data set [1] was found to be 167 nM; in data set [2] it was 21.5 nM; in data set [3], 19.1 nM; in data set [4] it was 31 nM. The TGI in data set [1] is given as 3.58E−07 Molar; in data set [2], 3.58E−08 Molar; in data set [3], 3.22E−08 Molar; in data set [4] it was 3.34E−08 Molar. Further, the CC50 is over 1190 nM in data set [1], 66.8 nM in data set [2], 91.9 nM in data set [3] and over 1190 nM in data set [4].
Take `COc1ccc2[nH]c3c(c2c1)C[C@@H](C(=O)O)N[C@]31CS[C@@H]2c3c(OC(C)=O)c(C)c4c(c3[C@H](COC1=O)N1[C@@H]2[C@H]2c3c(cc(C)c(OC)c3O)C[C@@H]([C@@H]1C#N)N2C)OCO4` [Compound 28-S, reference compound]: the GI50 in data set [1] was 489 nM; in data set [2], 251 nM; in data set [3], 167 nM; in data set [4] it was 251 nM. Further, the TGI in data set [1] is over 1.19E−06 Molar; in data set [2] it was 3.94E−07 Molar; in data set [3], 2.51E−07 Molar; in data set [4], 3.46E−07 Molar. In addition, the CC50 was over 1190 nM in data set [1], 692 nM in data set [2], 394 nM in data set [3] and 633 nM in data set [4].
As to `COc1c(C)cc2c(c1O)[C@@H]1[C@@H]3[C@@H]4SC[C@]5(NCCc6c5oc5ccccc65)C(=O)OC[C@@H](c5c6c(c(C)c(OC(C)=O)c54)OCO6)N3[C@@H](C#N)[C@H](C2)N1C` [Compound 31], the GI50 in data set [1] was determined as 19.6 nM; in data set [2] it was 6.8 nM; in data set [3] it was 8.89 nM; in data set [4] it was 10.5 nM. The TGI in data set [1] was determined as 2.09E−08 Molar; in data set [2], 1.57E−08 Molar; in data set [3], 1.70E−08 Molar; in data set [4] it was 1.57E−08 Molar. Also, the CC50 in data set [1] was 23.5 nM; in data set [2], 43.1 nM; in data set [3], 35.3 nM; in data set [4] it was over 131 nM.
In the case of `COc1ccc2oc3c(c2c1)CCN[C@]31CS[C@@H]2c3c(OC(C)=O)c(C)c4c(c3[C@H](COC1=O)N1[C@@H]2[C@H]2c3c(cc(C)c(OC)c3O)C[C@@H]([C@@H]1C#N)N2C)OCO4` [Compound 34], the concentration for 50% growth inhibition (GI50) in data set [1] came out at 59.1 nM; in data set [2], 54.1 nM; in data set [3] it was 45.3 nM; in data set [4] it was 54.1 nM. In addition, the TGI in data set [1] was determined as 8.05E−08 Molar; in data set [2] it was 5.91E−08 Molar; in data set [3], 7.67E−08 Molar; in data set [4], 8.55E−08 Molar. Also, the CC50 is over 126 nM in data set [1], over 126 nM in data set [2], 112 nM in data set [3] and 125 nM in data set [4].
Take `COc1c(C)cc2c(c1O)[C@@H]1[C@@H]3[C@@H]4SC[C@]5(N[C@@H](CO)Cc6c5oc5ccccc65)C(=O)OC[C@@H](c5c6c(c(C)c(OC(C)=O)c54)OCO6)N3[C@@H](C#N)[C@H](C2)N1C` [Compound 38-R]: the GI50 worked out at 0.654 nM in data set [1], 0.654 nM in data set [2], 0.453 nM in data set [3] and 0.541 nM in data set [4]. Moreover, the TGI amounted to 1.04E−09 Molar in data set [1], 9.94E−10 Molar in data set [2], 8.43E−10 Molar in data set [3] and 5.91E−10 Molar in data set [4]. Besides, the CC50 in data set [1] was over 126 nM; in data set [2] it was 1.76 nM; in data set [3] it was 2.01 nM; in data set [4] it was over 126 nM.
As for `COc1c(C)cc2c(c1O)[C@@H]1[C@@H]3[C@@H]4SC[C@]5(N[C@H](CO)Cc6c5oc5ccccc65)C(=O)OC[C@@H](c5c6c(c(C)c(OC(C)=O)c54)OCO6)N3[C@@H](C#N)[C@H](C2)N1C` [Compound 38-S], the GI50 in data set [1] was found to be 8.05 nM; in data set [2], 5.03 nM; in data set [3], 2.52 nM; in data set [4], 4.53 nM. The TGI in data set [1] came to 8.55E−09 Molar; in data set [2], 8.18E−09 Molar; in data set [3] it was 4.28E−09 Molar; in data set [4] it was 7.05E−09 Molar. Also, the CC50 is 9.44 nM in data set [1], 15.1 nM in data set [2], 7.8 nM in data set [3] and over 126 nM in data set [4].
